From PubChem BioAssay (NCI)
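The compound was tested at five concentrations on cells cultured in 96-well plates, with a 48-hour exposure period. At the GI50, growth is halved. TGI is the concentration that stops growth completely.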

Key:
Assay in all cases: NCI-60 cell line screen, 48 h
OVCAR-8 ovarian = tested on: OVCAR-8 ovarian
SW-620 colon = tested on: SW-620 colon
SN12C renal = tested on: SN12C renal
HCC-2998 colon = tested on: HCC-2998 colon
OVCAR-4 ovarian = tested on: OVCAR-4 ovarian
HT29 colon = tested on: HT29 colon
DMS 273 small cell lung = tested on: DMS 273 small cell lung
EKVX NSCLC = tested on: EKVX NSCLC
HOP-62 NSCLC = tested on: HOP-62 NSCLC
SF-295 CNS = tested on: SF-295 CNS
SK-MEL-2 melanoma = tested on: SK-MEL-2 melanoma
HOP-18 NSCLC = tested on: HOP-18 NSCLC
NCI-H23 lung = tested on: NCI-H23 lung
CCRF-CEM leukemia = tested on: CCRF-CEM leukemia
HOP-92 NSCLC = tested on: HOP-92 NSCLC
MOLT-4 leukemia = tested on: MOLT-4 leukemia
KM12 colon = tested on: KM12 colon
U251 CNS = tested on: U251 CNS

With `COC(=O)[C@@H]1c2cc3c(c(O)c2[C@@H](OC)C[C@@]1(C)O)C(=O)c1c(O)cc2c(c1C3=O)OC1O[C@@]2(C)[C@H](O)[C@@H](N(C)C)[C@@H]1O` the TGI (OVCAR-8 ovarian) was 2.05 µM, the TGI (SW-620 colon) was 2.21 µM and the TGI (SN12C renal) was 2.1 µM. For the same molecule, the TGI (HCC-2998 colon) was 1.37 µM, the TGI (OVCAR-4 ovarian) was 1.76 µM and the TGI (HT29 colon) was 2 µM. The TGI (DMS 273 small cell lung) was 0.779 µM, the TGI (EKVX NSCLC) was 1.33 µM and the TGI (HOP-62 NSCLC) was 1.06 µM. It also gave a TGI (SF-295 CNS) of 0.97 µM, a TGI (SK-MEL-2 melanoma) of 0.727 µM and a TGI (HOP-18 NSCLC) of 1.34 µM. It also gave a TGI (NCI-H23 lung) of 1.49 µM, a TGI (CCRF-CEM leukemia) greater than 150 µM and a TGI (HOP-92 NSCLC) of 0.14 µM. The TGI (MOLT-4 leukemia) was greater than 150 µM, the TGI (KM12 colon) was 2.34 µM and the TGI (U251 CNS) was 1.92 µM.
With `[Cl-].[Rh+3].c1ccc(-c2ccnc3c2ccc2c(-c4ccccc4)ccnc23)cc1.c1ccc(-c2ccnc3c2ccc2c(-c4ccccc4)ccnc23)cc1.c1ccc(-c2ccnc3c2ccc2c(-c4ccccc4)ccnc23)cc1` the TGI (OVCAR-8 ovarian) was greater than 100 µM, the TGI (SW-620 colon) was greater than 100 µM and the TGI (SN12C renal) was greater than 100 µM. For the same molecule, the TGI (HCC-2998 colon) was 50 µM, the TGI (OVCAR-4 ovarian) was greater than 100 µM and the TGI (HT29 colon) was 73.7 µM. The TGI (DMS 273 small cell lung) was 83.1 µM, the TGI (EKVX NSCLC) was greater than 91.7 µM and the TGI (HOP-62 NSCLC) was greater than 100 µM. For the same molecule, the GI50 (SF-295 CNS) was 31.3 µM, the TGI (SF-295 CNS) was greater than 100 µM and the TGI (SK-MEL-2 melanoma) was greater than 100 µM. For the same molecule, the TGI (HOP-18 NSCLC) was greater than 87.4 µM, the TGI (NCI-H23 lung) was greater than 100 µM and the TGI (CCRF-CEM leukemia) was greater than 100 µM. For the same molecule, the GI50 (HOP-92 NSCLC) was 19 µM, the TGI (HOP-92 NSCLC) was greater than 77.9 µM and the TGI (MOLT-4 leukemia) was greater than 100 µM. It also gave a TGI (KM12 colon) of 19.7 µM and a TGI (U251 CNS) greater than 100 µM.
In the case of `C=C(C)C1Cc2c(cc(O)c3c(=O)c4ccccc4n(C)c23)O1` (stereo not given), the TGI (SW-620 colon) is reported as greater than 100 µM, the TGI (SN12C renal) is reported as greater than 100 µM and the TGI (HCC-2998 colon) is reported as greater than 100 µM. It also gave a TGI (OVCAR-4 ovarian) of 26.7 µM, a TGI (HT29 colon) greater than 100 µM and a TGI (DMS 273 small cell lung) greater than 100 µM. For the same molecule, the TGI (HOP-62 NSCLC) was 61.3 µM, the TGI (SF-295 CNS) was 79.6 µM and the TGI (SK-MEL-2 melanoma) was greater than 100 µM. The TGI (HOP-18 NSCLC) was greater than 100 µM, the TGI (NCI-H23 lung) was greater than 100 µM and the TGI (CCRF-CEM leukemia) was greater than 100 µM. For the same molecule, the TGI (HOP-92 NSCLC) was 54.5 µM, the TGI (MOLT-4 leukemia) was greater than 100 µM and the TGI (KM12 colon) was greater than 100 µM. For the same molecule, the TGI (U251 CNS) was greater than 100 µM.
Molecule `C/C=C(/C)C(=O)O[C@@H]1c2c(C)coc2C[C@H]2CC[C@H](O)[C@H](C)[C@]21C` has a TGI (OVCAR-8 ovarian) greater than 100 µM, a TGI (SW-620 colon) greater than 100 µM and a TGI (SN12C renal) greater than 100 µM. The TGI (HCC-2998 colon) was greater than 100 µM, the TGI (OVCAR-4 ovarian) was greater than 100 µM and the TGI (HT29 colon) was greater than 100 µM. It also gave a TGI (EKVX NSCLC) greater than 100 µM, a TGI (HOP-62 NSCLC) greater than 100 µM and a TGI (SF-295 CNS) greater than 100 µM. For the same molecule, the TGI (NCI-H23 lung) was greater than 100 µM, the TGI (CCRF-CEM leukemia) was greater than 100 µM and the TGI (HOP-92 NSCLC) was greater than 100 µM. It also gave a TGI (MOLT-4 leukemia) greater than 100 µM, a TGI (KM12 colon) greater than 100 µM and a TGI (U251 CNS) greater than 100 µM.
With `O=[N+]([O-])c1ccc(/C=C/c2ccc(N=Nc3ccc(/C=C/c4ccc([N+](=O)[O-])cc4S(=O)(=O)O)c(S(=O)(=O)O)c3)cc2S(=O)(=O)O)c(S(=O)(=O)O)c1` the TGI (OVCAR-8 ovarian) was greater than 100 µM, the TGI (SW-620 colon) was greater than 100 µM and the TGI (SN12C renal) was greater than 100 µM. It also gave a TGI (HCC-2998 colon) greater than 100 µM, a TGI (OVCAR-4 ovarian) greater than 100 µM and a TGI (HT29 colon) greater than 100 µM. The TGI (DMS 273 small cell lung) was greater than 100 µM, the TGI (EKVX NSCLC) was greater than 100 µM and the TGI (HOP-62 NSCLC) was greater than 100 µM. For the same molecule, the TGI (SF-295 CNS) was greater than 100 µM, the TGI (SK-MEL-2 melanoma) was greater than 100 µM and the TGI (HOP-18 NSCLC) was greater than 100 µM. The TGI (NCI-H23 lung) was greater than 100 µM, the TGI (CCRF-CEM leukemia) was greater than 100 µM and the TGI (HOP-92 NSCLC) was greater than 94.3 µM. The TGI (MOLT-4 leukemia) was greater than 100 µM, the TGI (KM12 colon) was greater than 100 µM and the TGI (U251 CNS) was greater than 100 µM.
Work on `COc1ccc(/C(Cl)=C(\C=O)c2ccc(F)cc2)cc1` yielded a TGI (OVCAR-8 ovarian) greater than 100 µM, a TGI (SW-620 colon) greater than 100 µM and a TGI (SN12C renal) of 64.7 µM. For the same molecule, the TGI (HT29 colon) was 27.8 µM, the TGI (DMS 273 small cell lung) was 56.4 µM and the TGI (EKVX NSCLC) was greater than 100 µM. The TGI (HOP-62 NSCLC) was 59.3 µM, the TGI (SF-295 CNS) was 31.6 µM and the TGI (SK-MEL-2 melanoma) was 28.6 µM. It also gave a TGI (HOP-18 NSCLC) of 51.7 µM, a TGI (NCI-H23 lung) of 72.9 µM and a TGI (CCRF-CEM leukemia) of 18.7 µM. It also gave a TGI (HOP-92 NSCLC) of 19.1 µM, a TGI (MOLT-4 leukemia) of 50.9 µM and a TGI (U251 CNS) of 23.5 µM.
`CN(C)CCNCc1c2ccccc2c(CNCCN(C)C)c2ccccc12` showed a TGI (OVCAR-8 ovarian) greater than 100 µM, a TGI (SW-620 colon) greater than 73.6 µM and a TGI (SN12C renal) greater than 100 µM. It also gave a TGI (HCC-2998 colon) of 23.8 µM, a TGI (OVCAR-4 ovarian) of 72 µM and a TGI (HT29 colon) of 40.6 µM. It also gave a TGI (DMS 273 small cell lung) greater than 100 µM, a TGI (EKVX NSCLC) greater than 100 µM and a TGI (HOP-62 NSCLC) of 75.5 µM. For the same molecule, the TGI (SF-295 CNS) was greater than 100 µM, the TGI (SK-MEL-2 melanoma) was 57.5 µM and the TGI (HOP-18 NSCLC) was greater than 100 µM. For the same molecule, the TGI (NCI-H23 lung) was greater than 100 µM, the TGI (CCRF-CEM leukemia) was 88.8 µM and the TGI (HOP-92 NSCLC) was 47.3 µM. The TGI (MOLT-4 leukemia) was 8.31 µM, the TGI (KM12 colon) was greater than 100 µM and the TGI (U251 CNS) was 56.9 µM.
